Results taken from BigSolDB 2.1.

Cc1cccc(C(=O)O)c1N
solubility (mole fraction)
Conditions	278.15 K	283.15 K	288.15 K	293.15 K	298.15 K	303.15 K	308.15 K	313.15 K	318.15 K
in 1,4-dioxane	–	–	0.108	0.117	0.127	0.137	0.148	0.159	0.171
in 2-butanone	0.0646	0.0721	0.0792	0.0872	0.0953	0.104	0.114	0.124	0.134
in acetone	0.0745	0.0829	0.0918	0.101	0.111	0.121	0.132	0.143	0.154
in acetonitrile	0.0227	0.0275	0.0329	0.039	0.0461	0.054	0.0628	0.0727	0.0834
in cyclohexane	–	8.89e-05	0.000115	0.000153	0.000204	0.00027	0.00035	0.000454	0.000578
in ethanol	0.0176	0.0208	0.0244	0.0286	0.0333	0.0385	0.0444	0.0509	0.0582
in ethyl acetate	0.0294	0.0345	0.0405	0.0469	0.054	0.0619	0.0704	0.0803	0.0907
in isopropanol	0.00876	0.0109	0.0138	0.017	0.0208	0.0253	0.0303	0.036	0.0427
in methanol	0.02	0.0235	0.0273	0.0317	0.0367	0.0423	0.0483	0.055	0.0624
in n-butanol	0.0117	0.0144	0.0176	0.0212	0.0254	0.0302	0.0357	0.0422	0.0498
in n-propanol	0.0151	0.0178	0.0212	0.0251	0.0293	0.0344	0.04	0.046	0.0532
in toluene	0.0011	0.00145	0.00184	0.00235	0.00298	0.00382	0.0049	0.00619	0.00797
